Data on two substances can be found in patent publication US4259450A, “Antibiotic acanthomycin and process for preparing” (The Upjohn Company, priority 1977, dated 1981).

Data set [1] relates to S. aureus. Nature of the data set: in vivo protection of S. aureus infected mice. As for the experimental part: Acanthomycin was also tested in vivo in standard laboratory mice. […] Against S. aureus infected mice the CD50 was 1.0 mg/kg.
The nature of the next data set: Solubilities. It is filed as physicochemical.
Another data set has as its system S. pyogenese. Nature of the data set: in vivo protection of S. pyogenes infected mice. The following applies: administered subcutaneously.
Data set [2] concerns S. aureus. Nature of the data set: standard tube assay for antibacterial activity, nutrient broth. It is filed as cell-based, Staphylococcus aureus. As for the experimental part:
(§1) Acanthomycin was tested for antibacterial activity in a standard tube assay using nutrient broth as the medium. The minimum inhibitory concentration in mcg/ml against S. aureus was 50, and against S. lutea it was 25. Additional testing on a standard disc (12.7 mm) plate assay gave the following results: […]

Another data set has as its system Streptococcus pyogenes. Nature of the data set: standard disc (12.7 mm) plate assay. It is filed as cell-based. As for the experimental part: (§2) Acanthomycin was tested for antibacterial activity in a standard tube assay using nutrient broth as the medium. The minimum inhibitory concentration in mcg/ml against S. aureus was 50, and against S. lutea it was 25. Additional testing on a standard disc (12.7 mm) plate assay gave the following results:
(§3) The fermentation can be monitored by a disc-plate assay using B. subtilis as the test organism and deionized H2 O as diluent. A unit volume (0.08 ml) of solution containing the substance to be assayed is placed on a 12.7 mm paper disc which is then placed on an agar plate seeded with the assay organism. The agar plate is then incubated for 16 to 18 hours at 32° to 37° C. A biounit (BU) is defined as the concentration of the antibiotic which gives a 20 mm zone of inhibition under the standard assay conditions. Thus, if for example a fermentation beer has to be diluted 1/100 to give a 20 mm zone of inhibition, the potency of such beer is 100 BU/ml.

The subject of a further data set is Bacillus cereus. Nature of the data set: standard disc (12.7 mm) plate assay. The data set is classed as cell-based. The method, then: as §2, §3
A further data set concerns Bacillus subtilis. Nature of the data set: standard disc (12.7 mm) plate assay. It is filed as cell-based. The method, then:
as §2, §3

Another data set concerns Staphylococcus aureus. Nature of the data set: standard disc (12.7 mm) plate assay. It is filed as cell-based. As for the experimental part: as §2, §3
The test system of the next data set is Sarcina lutea. Nature of the data set: standard disc (12.7 mm) plate assay. It is filed as cell-based. The method, then:
as §2, §3

A further data set deals with S. lutea. Nature of the data set: standard tube assay for antibacterial activity, nutrient broth. The data set is classed as cell-based, Sarcina lutea. The method, then:
as §1

[3] abbreviates: free acid, slightly soluble, ca.

Turning to acanthomycin, the values for the CD50 in the data set on S. aureus [1] and in the data set on S. pyogenese were 1.0 mg/kg and 0.23 (0.17-0.31) mg/kg, respectively. For the same substance, the solubility in dimethylformamide result in “Solubilities” (free acid) was “soluble”. The solubility in dimethylsulfoxide entry in “Solubilities” (free acid) is on record as “soluble”. Besides, the solubility in ether entry in the data set “Solubilities” (free acid) is on record as “relatively insoluble”. Besides, the “solubility in halogenated hydrocarbon solvents” value in the data set “Solubilities” (free acid) was “relatively insoluble”. The “solubility in saturated hydrocarbon solvents” value in “Solubilities” (free acid) is on record as “relatively insoluble”. Further, the solubility in water result in “Solubilities” (free acid) is “relatively insoluble”. Moreover, the solubility in ethanol in “Solubilities” (setting [3]) was in the range of 1 to 2 mg/mL. The substance also came in with a solubility in methanol in the data set “Solubilities” (setting [3]) of 1 to 2 mg/mL. For the same substance, the minimum inhibitory concentration was determined as 50 µg/mL with S. aureus [2] and 25 µg/mL in the data set on S. lutea. For the same substance, the Zone with Streptococcus pyogenes (0.31 mg/ml) came to 34 mm; in the data set with Streptococcus pyogenes (0.62 mg/ml), 36.5 mm; in the data set on Streptococcus pyogenes (1.25 mg/ml), 38.5 mm; in the data set with Streptococcus pyogenes (2.5 mg/ml), 40 mm; with Streptococcus pyogenes (5 mg/ml) it was 40 mm; in the data set on Streptococcus pyogenes (10 mg/ml) it was 41.5 mm. Further, the Zone with Bacillus cereus (0.31 mg/ml) is 17 mm; with Bacillus cereus (0.62 mg/ml), 20 mm; in the data set with Bacillus cereus (1.25 mg/ml), 21 mm; with Bacillus cereus (2.5 mg/ml), 23 mm; in the data set on Bacillus cereus (5 mg/ml), 25 mm; in the data set with Bacillus cereus (10 mg/ml), 26 mm. Moreover, the Zone in the data set on Bacillus subtilis (0.31 mg/ml) stood at 26 mm; with Bacillus subtilis (0.62 mg/ml) it was 28 mm; in the data set on Bacillus subtilis (1.25 mg/ml), 30 mm; in the data set on Bacillus subtilis (2.5 mg/ml), 31.5 mm; in the data set with Bacillus subtilis (5 mg/ml), 33 mm; in the data set with Bacillus subtilis (10 mg/ml), 34 mm. Besides, the Zone was 22.5 mm in the data set with Staphylococcus aureus (0.31 mg/ml); 24.5 mm in the data set with Staphylococcus aureus (0.62 mg/ml); 26.5 mm in the data set on Staphylococcus aureus (1.25 mg/ml); 28 mm with Staphylococcus aureus (2.5 mg/ml); 28.5 mm in the data set on Staphylococcus aureus (5 mg/ml); 29.5 mm with Staphylococcus aureus (10 mg/ml). The Zone came to 25 mm with Sarcina lutea (0.31 mg/ml); 27 mm in the data set on Sarcina lutea (0.62 mg/ml); 30 mm with Sarcina lutea (1.25 mg/ml); 32 mm in the data set with Sarcina lutea (2.5 mg/ml); 34 mm with Sarcina lutea (5 mg/ml); 35 mm with Sarcina lutea (10 mg/ml). The “activity against B. subtilis” value in the data set with Bacillus subtilis (statement in words) is listed as “active”. Besides, in the data set with Staphylococcus aureus (statement in words), the “activity against S. aureus” value was “active”.
For the substance acanthomycin ammonium salt, in “Solubilities” (salts (ammonium and sodium)), the “solubility in lower alcohols” value is listed as “soluble” and the solubility in water entry was “soluble”.
